Legend:
Experiment in all cases: Bliss excess, mean over the matrix (fraction); higher = more synergy
786-0 (Kidney Carcinoma) = test system: 786-0 (Kidney Carcinoma)
Summary of the method: (§1)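 Cell lines in DMEM/F12 or RPMI with 10% FBS were plated in 1536-well plates, held 24 hours at 37°C, 5% CO2, then given two-drug dose matrices for 72 hours (DMSO typically 0.2%). Viability was read by CellTiter-Glo 2.0 luminescence and scaled as inhibition from 0 (vehicle wells) to 1 (blank wells). Combination Emax is the second-highest inhibition in the matrix; Bliss excess is observed combination effect minus expected EA + EB − EA·EB, EA and EB being single-agent effects.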

[1] = test system: RL95-2 (Endometrial Carcinoma)
Summary of the method: as §1

[2] = test system: RMG-I (Ovarian Carcinoma)
Summary of the method: as §1

HuO-3N1 (Osteosarcoma) = test system: HuO-3N1 (Osteosarcoma)
Summary of the method: as §1

[3] = test system: Caov-3 (Ovarian Carcinoma)
Summary of the method: as §1

[4] = test system: JHH-1 (Hepatocellular Carcinoma)
Summary of the method: as §1

CHL-1 (Melanoma) = test system: CHL-1 (Melanoma)
Summary of the method: as §1

[5] = test system: LOUCY (T-Lymphoblastic Leukemia)
Summary of the method: as §1

[6] = test system: NCI-H196 (Small Cell Lung Carcinoma)
Summary of the method: as §1

[7] = test system: NCI-H1623 (Lung Adenocarcinoma)
Summary of the method: as §1

[8] = test system: Calu-6 (Non-Small Cell Lung Carcinoma)
Summary of the method: as §1

[9] = test system: CML-T1 (Chronic Myelogenous Leukemia)
Summary of the method: as §1

[10] = test system: OCI-AML5 (Acute Myeloid Leukemia)
Summary of the method: as §1

[11] = test system: NKM-1 (Acute Myeloid Leukemia)
Summary of the method: as §1

[12] = test system: PANC-02-03 (Pancreatic Carcinoma)
Summary of the method: as §1

[13] = test system: SK-MM-2 (Plasma Cell Myeloma)
Summary of the method: as §1

[14] = test system: LAMA-84 (Chronic Myelogenous Leukemia)
Summary of the method: as §1

[15] = test system: NCI-H1563 (Lung Adenocarcinoma)
Summary of the method: as §1

[16] = test system: FLO-1 (Esophageal Adenocarcinoma)
Summary of the method: as §1

[17] = test system: SW684 (Other Solid Carcinomas)
Summary of the method: as §1

Structure (SMILES) | Bliss excess (786-0 (Kidney Carcinoma)) | Bliss excess [1] | Bliss excess [2] | Bliss excess (HuO-3N1 (Osteosarcoma)) | Bliss excess [3] | Bliss excess [4] | Bliss excess (CHL-1 (Melanoma)) | Bliss excess [5] | Bliss excess [6] | Bliss excess [7] | Bliss excess [8] | Bliss excess [9] | Bliss excess [10] | Bliss excess [11] | Bliss excess [12] | Bliss excess [13] | Bliss excess [14] | Bliss excess [15] | Bliss excess [16] | Bliss excess [17]
CN(CCO)CC[C@H](CSc1ccccc1)Nc1ccc(S(=O)(=O)NC(=O)c2ccc(N3CCC([C@@H](O)c4ccccc4-c4ccc(Cl)cc4)CC3)cc2)cc1S(=O)(=O)C(F)(F)F [AZD4320] + C=CCn1c(=O)c2cnc(Nc3ccc(N4CCN(C)CC4)cc3)nc2n1-c1cccc(C(C)(C)O)n1 [AZD1775] (first compound max 1 µM, partner max 1 µM) | -0.0685 | 0.006 | 0.0664 | -0.0135 | 0.0779 | 0.136 | 0.0509 | 0.002 | 0.0268 | 0.0318 | 0.0019 | -0.0082 | 0.0099 | 0.035 | 0.0045 | 0.0011 | 0.083 | -0.0024 | 0.0293 | -0.0416
Cc1c2c(nn1C)CSCc1cc(n(C)n1)CSc1cc(c3ccccc3c1)OCCCc1c(C(=O)O)n(C)c3c-2c(Cl)ccc13 [AZD5991] + Cn1cnc2c(F)c(Nc3ccc(Br)cc3Cl)c(C(=O)NOCCO)cc21 [Selumetinib] (first compound max 1 µM, 7x7, partner max 3 µM) | 0.0107 | 0.0336 | -0.0027 | -0.0008 | 0.0536 | 0.0408 | -0.0031 | 0.0129 | -0.0374 | 0.0184 | 0.0572 | 0.0516 | 0.0422 | -0.0014 | -0.003 | -0.0194 | 0.102 | 0.0158 | -0.055 | -0.0091
C=CCn1c(=O)c2cnc(Nc3ccc(N4CCN(C)CC4)cc3)nc2n1-c1cccc(C(C)(C)O)n1 [AZD1775] + O=C(c1cc(Cc2n[nH]c(=O)c3ccccc23)ccc1F)N1CCN(C(=O)C2CC2)CC1 [Olaparib] (first compound max 1 µM, partner max 10 µM) | -0.0097 | -0.0372 | -0.0105 | -0.0835 | -0.0396 | -0.0244 | -0.0491 | 0.0492 | -0.0552 | -0.0233 | -0.0421 | 0.0213 | -0.0096 | -0.0375 | -0.0513 | -0.0471 | -0.0086 | -0.0288 | -0.0673 | -0.0689
CC1(C)CCC(CN2CCN(c3ccc(C(=O)NS(=O)(=O)c4ccc(NCC5CCOCC5)c([N+](=O)[O-])c4)c(Oc4cnc5[nH]ccc5c4)c3)CC2)=C(c2ccc(Cl)cc2)C1 [Venetoclax] + C1CN(CCC1(C(=O)N[C@@H](CCO)C2=CC=C(C=C2)Cl)N)C3=NC=NC4=C3C=CN4 [Capivasertib] (first compound max 1 µM, 7x7, partner max 3 µM) | -0.0428 | -0.0102 | -0.0823 | -0.0347 | -0.0458 | -0.0721 | -0.0266 | 0.104 | -0.0377 | -0.0643 | -0.0558 | -0.0342 | -0.0057 | 0.0228 | -0.0742 | -0.0449 | -0.0498 | -0.0411 | -0.0841 | -0.0688
Cc1c2c(nn1C)CSCc1cc(n(C)n1)CSc1cc(c3ccccc3c1)OCCCc1c(C(=O)O)n(C)c3c-2c(Cl)ccc13 [AZD5991] + CC1(C)CCC(CN2CCN(c3ccc(C(=O)NS(=O)(=O)c4ccc(NCC5CCOCC5)c([N+](=O)[O-])c4)c(Oc4cnc5[nH]ccc5c4)c3)CC2)=C(c2ccc(Cl)cc2)C1 [Venetoclax] (first compound max 1 µM, 7x7, partner max 1 µM) | -0.034 | -0.0463 | -0.0289 | 0.0087 | 0.0262 | 0.128 | 0.227 | 0.154 | -0.0251 | 0.0111 | -0.0014 | 0.116 | 0.0667 | 0.0517 | -0.0304 | 0.0209 | -0.0185 | 0.0236 | -0.0597 | -0.0596
CC1(C)CCC(CN2CCN(c3ccc(C(=O)NS(=O)(=O)c4ccc(NCC5CCOCC5)c([N+](=O)[O-])c4)c(Oc4cnc5[nH]ccc5c4)c3)CC2)=C(c2ccc(Cl)cc2)C1 [Venetoclax] + Cc1cc2ncnn2cc1Nc1ncc2c(n1)n(C1CCOCC1)c(=O)n2C [AZD7648] (first compound max 1 µM, 7x7, partner max 10 µM) | -0.0487 | -0.0025 | -0.0277 | 0.044 | -0.159 | -0.0374 | -0.0264 | 0.0678 | -0.0385 | -0.0006 | 0.0067 | -0.0195 | -0.0238 | 0.0323 | -0.0646 | 0.0145 | -0.0041 | -0.0123 | -0.114 | -0.0627
CC(=O)Nc1cccc(-n2c(=O)n(C3CC3)c(=O)c3c(Nc4ccc(I)cc4F)n(C)c(=O)c(C)c32)c1 [Trametinib] + Cc1nc(-c2cn3c(n2)-c2ccc(-c4cnn(C(C)(C)C(N)=O)c4)cc2OCC3)n(C(C)C)n1 [Taselisib] (first compound max 1 µM, 7x7, partner max 10 µM) | -0.0229 | 0.0378 | -0.0099 | 0.0402 | 0.0289 | 0.0177 | 0.171 | 0.0668 | 0.0039 | 0.144 | 0.168 | 0.0426 | 0.194 | 0.255 | 0.179 | 0.0386 | 0.0537 | 0.103 | 0.047 | 0.161
CN(CCO)CC[C@H](CSc1ccccc1)Nc1ccc(S(=O)(=O)NC(=O)c2ccc(N3CCC([C@@H](O)c4ccccc4-c4ccc(Cl)cc4)CC3)cc2)cc1S(=O)(=O)C(F)(F)F [AZD4320] + C[C@@H](Nc1cc(F)cc(F)c1)c1cc(C(=O)N(C)C)cc2c(=O)cc(N3CCOCC3)oc12 [AZD8186] (first compound max 1 µM, 7x7, partner max 3 µM) | -0.0081 | -0.0036 | -0.0066 | 0.0557 | -0.019 | -0.0258 | 0.0322 | 0.0111 | 0.0427 | 0.0105 | 0.0264 | 0.0035 | 0.0823 | 0.0224 | -0.0465 | 0.0197 | 0.0355 | 0.0295 | -0.0261 | -0.0356
COc1cccc(OCCCN)c1-c1cc(Nc2cnc(C#N)cn2)n[nH]1 [Prexasertib] + C=CCn1c(=O)c2cnc(Nc3ccc(N4CCN(C)CC4)cc3)nc2n1-c1cccc(C(C)(C)O)n1 [AZD1775] (first compound max 1 µM, partner max 1 µM) | 0.0707 | 0.108 | 0.0265 | 0.122 | -0.0546 | 0.0105 | 0.0485 | 0.0578 | -0.0317 | 0.0519 | -0.0201 | 0.189 | 0.063 | 0.056 | 0.0504 | 0.0085 | 0.0731 | -0.0101 | 0.0488 | 0.0798
Cc1c2c(nn1C)CSCc1cc(n(C)n1)CSc1cc(c3ccccc3c1)OCCCc1c(C(=O)O)n(C)c3c-2c(Cl)ccc13 [AZD5991] + C[C@@H](Nc1cc(F)cc(F)c1)c1cc(C(=O)N(C)C)cc2c(=O)cc(N3CCOCC3)oc12 [AZD8186] (first compound max 1 µM, 7x7, partner max 3 µM) | 0.0005 | -0.0802 | -0.0247 | 0.0324 | 0.0338 | 0.0056 | 0.0292 | -0.0772 | -0.0353 | -0.0133 | -0.0018 | -0.0081 | -0.0146 | -0.0247 | -0.0327 | -0.0419 | -0.0037 | 0.0003 | -0.0486 | -0.0553
CCN(CCO)CCCOc1ccc2c(Nc3cc(CC(=O)Nc4cccc(F)c4)[nH]n3)ncnc2c1 [AZD2811] + O=C(c1cc(Cc2n[nH]c(=O)c3ccccc23)ccc1F)N1CCN(C(=O)C2CC2)CC1 [Olaparib] (first compound max 1 µM, 7x7, partner max 10 µM) | -0.0274 | -0.0101 | -0.0141 | -0.0185 | -0.0444 | 0.0078 | -0.0035 | -0.0463 | -0.0193 | -0.0526 | 0.0004 | 0.029 | -0.0224 | 0.0342 | 0.0133 | -0.0256 | 0.0269 | -0.0221 | -0.0153 | -0.0219
CN(C)CCCOc1ccc(-c2ccc3ncc4c(c3c2)n(C2CCOCC2)c(=O)n4C)cn1 [AZD0156] + C[C@@H]1COCCN1C2=NC(=NC(=C2)C3(CC3)[S@](=N)(=O)C)C4=C5C=CNC5=NC=C4 [AZD6738] (first compound max 1 µM, 7x7, partner max 10 µM) | -0.0177 | -0.0387 | -0.0095 | -0.0046 | -0.026 | 0.0102 | 0.0023 | 0.0196 | -0.0414 | -0.0236 | -0.0139 | -0.0095 | -0.0479 | -0.11 | -0.0412 | -0.0524 | 0.0048 | -0.0063 | 0.0005 | -0.0526
COc1cccc(OCCCN)c1-c1cc(Nc2cnc(C#N)cn2)n[nH]1 [Prexasertib] + O=C(c1cc(Cc2n[nH]c(=O)c3ccccc23)ccc1F)N1CCN(C(=O)C2CC2)CC1 [Olaparib] (first compound max 1 µM, 7x7, partner max 10 µM) | -0.0427 | -0.0343 | -0.124 | -0.0658 | -0.0138 | -0.0416 | -0.051 | -0.0422 | -0.0641 | -0.0777 | -0.0701 | -0.03 | -0.045 | -0.0706 | -0.0932 | -0.011 | -0.0307 | -0.037 | -0.0721 | -0.0742
CN(C)CCCOc1ccc(-c2ccc3ncc4c(c3c2)n(C2CCOCC2)c(=O)n4C)cn1 [AZD0156] + CCN(CCO)CCCOc1ccc2c(Nc3cc(CC(=O)Nc4cccc(F)c4)[nH]n3)ncnc2c1 [AZD2811] (first compound max 1 µM, 7x7, partner max 1 µM) | -0.0107 | 0.0016 | -0.072 | -0.0225 | -0.0478 | -0.0159 | 0.0015 | -0.0646 | -0.05 | -0.0321 | -0.0112 | 0.0352 | -0.0185 | -0.031 | -0.0371 | -0.0131 | -0.021 | -0.006 | -0.0376 | -0.0583
